In ChEMBL document CHEMBL1201862, “PubChem BioAssay data set” (2004):
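Results reflect a 48-hour exposure of cells in 96-well plates to compound at five concentrations. Abbreviation: GI50, concentration required for 50% inhibition of growth.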 The source made the active and inactive calls. Rule as the data show it: active = GI50 up to about 1.1 µM and inactive = higher.

Assays:
Assay in all cases: NCI-60 cell line screen, 48 h
[1] = system: SK-MEL-28
[2] = system: A498
[3] = system: Malme-3M
[4] = system: RXF 631
[5] = system: K562
[6] = system: HOP-18
[7] = system: SK-OV-3
[8] = system: UACC-62
[9] = system: SK-MEL-5
[10] = system: HCT-15
[11] = system: 786-0
[12] = system: OVCAR-3
[13] = system: NCI-H226
[14] = system: HT-29
[15] = system: CCRF-CEM
[16] = system: RPMI-8226
[17] = system: COLO 205
[18] = system: SNB-75
[19] = system: HCC 2998
[20] = system: A549
[21] = system: HL-60
[22] = system: SNB-19
[23] = system: U-251
[24] = system: OVCAR-8
[25] = system: UO-31
[26] = system: IGROV-1
[27] = system: DMS-273
[28] = system: SW-620
[29] = system: HOP-62
[30] = system: TK-10
[31] = system: LXFL 529
[32] = system: SF-295
[33] = system: HCT-116
[34] = system: EKVX
[35] = system: DMS-114
[36] = system: SF-539
[37] = system: CAKI-1
[38] = system: NCI-H460
[39] = system: M19-MEL
[40] = system: SF-268
[41] = system: DLD-1
[42] = system: ACHN
[43] = system: UACC-257
[44] = system: OVCAR-4
[45] = system: MOLT-4
[46] = system: OVCAR-5
[47] = system: LOX IMVI
[48] = system: SK-MEL-2
[49] = system: KM-20L2
[50] = system: XF498
[51] = system: SN12C
[52] = system: NCI-H23
[53] = system: NCI-H522

Q: Which results are given for CN(C)c1snc2c1c(=O)n(C)c(=O)n2C?
A: GI50 [1]: > 100 µM (inactive); GI50 [2]: > 100 µM (inactive); GI50 [3]: > 100 µM (inactive); GI50 [4]: > 100 µM (inactive); GI50 [5]: > 100 µM (inactive); GI50 [6]: > 100 µM (inactive); GI50 [7]: > 100 µM (inactive); GI50 [8]: > 100 µM (inactive); GI50 [9]: > 100 µM (inactive); GI50 [10]: > 100 µM; GI50 [11]: > 100 µM (inactive); GI50 [12]: > 100 µM (inactive); GI50 [13]: 65.2 µM (inactive); GI50 [14]: > 100 µM (inactive); GI50 [15]: > 100 µM (inactive); GI50 [16]: > 100 µM (inactive); GI50 [17]: > 100 µM (inactive); GI50 [18]: 35.7 µM (inactive); GI50 [19]: > 100 µM (inactive); GI50 [20]: > 100 µM (inactive); GI50 [21]: > 100 µM (inactive); GI50 [22]: > 100 µM (inactive); GI50 [23]: > 100 µM (inactive); GI50 [24]: > 100 µM (inactive); GI50 [25]: > 100 µM (inactive); GI50 [26]: > 100 µM (inactive); GI50 [27]: > 100 µM (inactive); GI50 [28]: > 100 µM (inactive); GI50 [29]: > 100 µM (inactive); GI50 [30]: > 100 µM (inactive); GI50 [31]: > 100 µM (inactive); GI50 [32]: > 100 µM (inactive); GI50 [33]: > 100 µM (inactive); GI50 [34]: 40.1 µM (inactive); GI50 [35]: > 100 µM (inactive); GI50 [36]: > 100 µM (inactive); GI50 [37]: > 100 µM (inactive); GI50 [38]: > 100 µM (inactive); GI50 [39]: > 100 µM (inactive); GI50 [40]: > 100 µM (inactive); GI50 [41]: > 100 µM (inactive); GI50 [42]: > 100 µM (inactive); GI50 [43]: > 100 µM (inactive); GI50 [44]: > 100 µM (inactive); GI50 [45]: > 100 µM (inactive); GI50 [46]: > 100 µM (inactive); GI50 [47]: > 100 µM (inactive); GI50 [48]: > 100 µM (inactive); GI50 [49]: > 100 µM (inactive); GI50 [50]: > 100 µM (inactive); GI50 [51]: > 100 µM (inactive); GI50 [52]: > 100 µM (inactive); GI50 [53]: > 100 µM (inactive)
